Test results from patent US20160053026A1, “METHODS FOR TREATING INFECTION BY HPV” (STC.UNM, priority 2011, published 2016).

How the values were obtained:
[1] = test system: HPV[+] human keratinocytes; test: MTT cell viability assay, HPV[+] cells; format: cell-based; details: cetuximab 50, 100, 200 μg/mL; PD98059 12.5, 25, 50 μM; MTT after 72 hours (seven days)
Description: (§1) FIG. 7. […] The boxes indicate the same concentrations used in the FIG. 3 and FIG. 5. MTT assays were performed to assess cell viability. Error bars represent SEM (N=3).
(§2) Western blot was performed (FIG. 5) and cell viability determined with MTT assay and clonogenic assays performed as described (FIG. 7) (Meira et al., 2009, Euro J Cancer 45:1265-1273).
(§3) The proliferative capacity of MAPK inhibitor-treated cells compared to untreated cells was measured by MTT assay after 72 hours to determine the surviving fractions (FIG. 7).

HPV16 E1^E4 early mRNA = test: RT-qPCR of HPV16 E1^E4 early mRNA in HPV[+] HFK cells; format: cell-based; details: cetuximab 100 μg/mL or PD98059 25 μM, 24-96 hours
Description: HPV16 E1̂E4 early mRNA levels in response to treatment with EGFR or MAPK inhibitors. […] Total RNA harvested at indicated time points was subjected to RT and then to qPCR for β-actin and HPV16 E1̂E4 quantification. […] Data are the result of two separate experiments.
Total RNA harvested at 24 hours, 48 hours, 72 hours, or 96 hours was subjected to RT and then to qPCR for β-actin and HPV16 E1̂E4 quantification.
(§5) TURBO DNA-free Kit (Ambion) to remove co-purifying viral and cellular DNA. Reverse transcription (RT) of total RNAs (0.2-0.5 μg) was performed using random hexamer primers and ABI reagents (Applied Biosystems). For quantitative PCR (qPCR), 2 μl of each cDNA or total DNA was analyzed in triplicate using the SYBR Green I kit on the iCycler (Bio-Rad Laboratories, Inc., Hercules, Calif.).

p-ERK1/2 = test: Immunoblot for p-ERK1/2 (MAPK signaling) after EGF stimulation in HPV[+] and HPV[−] keratinocytes; format: cell-based, human; details: cetuximab 100 μg/mL or PD98059 25 μM; 10 ng/mL EGF in SFM, 5 or 15 minutes; SG3 (HPV16[+]) and NIKS (HPV[−]) cells
Description: (§4) FIG. 5. […] Mock=No EGF. Cell lysates were harvested and subjected to SDS-PAGE and immunoblot for p-EGFR, total EGFR, p-ERK1/2 and GAPDH, a loading control.
as §2

HPV16 viral genome = test: qPCR of HPV16 LCR (viral genome number) in HPV[+] HFK cells; format: cell-based; details: cetuximab 100 μg/mL or PD98059 25 μM, two to six days after treatment
Description: Response of HPV16 viral genome number to EGFR or MAPK Inhibitors. […] Total DNA harvested at indicated time points was subjected to qPCR for HPV16 LCR quantification. […] Data are the result of 2 separate experiments. (* p<0.05, ** p<0.01).
Total DNA harvested at two days, three days, four days, five days, or six days after treatment was subjected to qPCR (SYBR Green I kit on the BioRad iCycler) for HPV16 LCR quantification. […] Total RNAs were extracted from cells using TRIzol (Invitrogen), and processed with the
as §5

[2] = test system: HPV[−] human keratinocytes; test: MTT cell viability assay, HPV[−] cells; format: cell-based; details: cetuximab 50, 100, 200 μg/mL; PD98059 12.5, 25, 50 μM; MTT after 72 hours (seven days)
Description: as §1, §2, §3

EGFR = test: Immunoblot for p-EGFR after EGF stimulation in HPV[+] and HPV[−] keratinocytes; format: cell-based, human; details: cetuximab 100 μg/mL or PD98059 25 μM; 10 ng/mL EGF in SFM, 5 or 15 minutes; SG3 (HPV16[+]) and NIKS (HPV[−]) cells
Description: as §4, §2

COc1cccc(-c2cc(=O)c3ccccc3o2)c1N [PD98059]
viability of HPV[+] cells (MTT) [1]: dose-dependent decrease in viability | HPV16 E1^E4 transcript levels (HPV16 E1^E4 early mRNA): decrease is statistically significant after 48 hours of treatment | downstream / MAPK signaling (p-ERK1/2) (p-ERK1/2): blocked MAPK signaling | HPV16 genome levels (LCR qPCR) compared to mock treated (HPV16 viral genome): statistically significant decrease in HPV16 genome levels | viability of HPV[−] cells (MTT) [2]: dose-dependent decrease in viability | EGFR activation (p-EGFR) (EGFR): did not affect EGFR activation
